Measured values: patent US8377974B2 (Millennium Pharmaceuticals, Inc., priority 2004, dated 2013)

biological target: T1, human plasma protein factor Xa (Homo sapiens, UniProt P00742); assay: Factor Xa IC50 determination: cleavage of paranitroanilide substrate S-2765 in 96-well plates; format: biochemical; conditions: fXa 1 nM, S-2765 100 μM, Tris buffered saline pH 7.4, room temperature
T1 construct: measure proteolytic activity of the enzyme (factor Xa); purchased Haematologic Technologies (Essex Junction, Vt.); host or cells: human plasma
T1 sequence (P00742 235-488 limits assumed): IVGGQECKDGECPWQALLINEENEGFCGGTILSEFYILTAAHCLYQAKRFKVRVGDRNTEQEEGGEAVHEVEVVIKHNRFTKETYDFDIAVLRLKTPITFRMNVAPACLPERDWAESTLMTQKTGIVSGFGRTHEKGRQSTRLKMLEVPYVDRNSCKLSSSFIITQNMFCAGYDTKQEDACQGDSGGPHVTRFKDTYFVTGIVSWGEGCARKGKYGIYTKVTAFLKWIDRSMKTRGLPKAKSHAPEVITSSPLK
T1 sequence (P00742 41-179 partner limits assumed): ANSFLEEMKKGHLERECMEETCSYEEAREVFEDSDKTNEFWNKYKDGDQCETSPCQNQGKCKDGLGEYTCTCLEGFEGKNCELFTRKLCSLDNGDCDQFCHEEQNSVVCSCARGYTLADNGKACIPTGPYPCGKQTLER
In short: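 Human plasma factor Xa (1 nM) preincubated 5 min at room temperature with inhibitor (0.01 nM–10 μM final) in Tris-buffered saline pH 7.4 with 5 mM CaCl2, 0.1% BSA, 5% DMSO. S-2765 at 100 μM final; hydrolysis at 405 nm over 2 min. IC50 from 4-parameter fit of initial velocities.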

IC50 [nM] | SMILES
≥ 500 | CN(Cc1cc(-c2ccc(C(=N)N3CCCCC3)cc2)no1)C(=O)c1ccc(Cl)s1 [Example 38, 5-Chloro-thiophene-2-carboxylic acid {3-[4-(imino-piperidin-1-yl-methyl)-phenyl]-isoxazol-5-ylmethyl}-methyl-amide]
≤ 100 | CC1(CNC(=O)c2ccc(Cl)s2)CC(c2ccc(C(N3CCC3)=[N+]3CCC3)cc2)=NO1 (centres unmarked) [Example 63, 5-Chloro-thiophene-2-carboxylic acid {3-[4-(azetidin-1-yl-azetidin-1-ylidene-methyl)-phenyl]-5-methyl-4,5-dihydro-isoxazol-5-ylmethyl}-amide]
≤ 100 | CCCN(C)C(=N)c1ccc(-c2cc(CNC(=O)c3ccc(Cl)s3)on2)cc1 [Example 29, 5-Chloro-thiophene-2-carboxylic acid {3-[4-(N-methyl-N-propyl-carbamimidoyl)-phenyl]-isoxazol-5-ylmethyl}-amide]
≤ 100 | N=C(c1ccc(C2=NOC(CNC(=O)c3ccc(Cl)s3)C2)c(N2CCCCCC2)c1)N1CCCCC1 (centres unmarked) [Example 93, 5-Chloro-thiophene-2-carboxylic acid {3-[2-azepan-1-yl-4-(imino-piperidin-1-yl-methyl)-phenyl]-4,5-dihydro-isoxazol-5-ylmethyl}-amide]
≤ 100 | CN1CCN=C1c1ccc(-c2noc(CNC(=O)c3ccc(Cl)s3)n2)cc1 [Example 335, 5-Chloro-N-((3-(4-(1-methyl-4,5-dihydro-1H-imidazol-2-yl)phenyl)-1,2,4-oxadiazol-5-yl)methyl)thiophene-2-carboxamide]
≤ 100 | N=C(c1ccc(-c2cc(CNC(=O)c3ccc(Cl)s3)no2)cc1)N1CCCCC1 [Example 333, 5-Chloro-N-((5-(4-(imino(piperidin-1-yl)methyl)phenyl)isoxazol-3-yl)methyl)thiophene-2-carboxamide]
≤ 100 | N=C(c1ccc(-c2cc(CNC(=O)c3ccc(Cl)s3)on2)cc1)N1CCCC1 [Example 23, 5-Chloro-thiophene-2-carboxylic acid {3-[4-(imino-pyrrolidin-1-yl-methyl)-phenyl]-isoxazol-5-ylmethyl}-amide]
100 to 500 | COCCN(C)c1cc(C(=N)N2CCCC2)ccc1C1=NOC(CNC(=O)c2ccc(Cl)s2)C1 (centres unmarked) [Example 88, 5-Chloro-thiophene-2-carboxylic acid (3-{4-(imino-pyrrolidin-1-yl-methyl)-2-[(2-methoxy-ethyl)-methyl-amino]-phenyl}-4,5-dihydro-isoxazol-5-ylmethyl)-amide]
≤ 100 | CN(C)C(=N)c1ccc(-n2cnc(CNC(=O)c3ccc(Cl)s3)c2)cc1 [Example 364, N-((1-(4-(N,N-Dimethylcarbamimidoyl)phenyl)-1H-imidazol-4-yl)methyl)-5-chlorothiophene-2-carboxamide]
≥ 500 | CNC(=N)c1ccc(-c2nc(CNC(=O)c3ccc(Cl)s3)cs2)cc1 [Example 358, N-((2-(4-(N-Methylcarbamimidoyl)phenyl)thiazol-4-yl)methyl)-5-chlorothiophene-2-carboxamide]
≤ 100 | CCOc1cc(C(=N)N2CCCC2)ccc1-c1cc(CNC(=O)c2ccc(Cl)s2)on1 [Example 124, 5-Chloro-thiophene-2-carboxylic acid {3-[2-ethoxy-4-(imino-pyrrolidin-1-yl-methyl)-phenyl]-isoxazol-5-ylmethyl}-amide]
≥ 500 | CN(Cc1ccco1)C(=N)c1ccc(-c2nc(CNC(=O)c3ccc(Cl)s3)cs2)cc1 [Example 356, N-((2-(4-(N-(Furan-2-ylmethyl)-N-methylcarbamimidoyl)phenyl)thiazol-4-yl)methyl)-5-chlorothiophene-2-carboxamide]
100 to 500 | CN1CCC(Nc2ccc(C3=NOC(CNC(=O)c4ccc(Cl)s4)C3)cc2)CC1 (centres unmarked) [Example 237, 5-Chloro-thiophene-2-carboxylic acid {3-[4-(1-methyl-piperidin-4-ylamino)-phenyl]-4,5-dihydro-isoxazol-5-ylmethyl}-amide]
100 to 500 | Cn1ccc(Nc2ccc(C3=NOC(CNC(=O)c4ccc(Cl)s4)C3)cc2)n1 (centres unmarked) [Example 233, 5-Chloro-thiophene-2-carboxylic acid {3-[4-(1-methyl-1H-pyrazol-3-ylamino)-phenyl]-4,5-dihydro-isoxazol-5-ylmethyl}-amide]
≤ 100 | O=C(NCc1cn(-c2ccc(N3CCOCC3=O)cc2F)nn1)c1ccc(Cl)s1 [Example 306, 5-Chloro-N-((1-(2-fluoro-4-(3-oxomorpholino)phenyl)-1H-1,2,3-triazol-4-yl)methyl)thiophene-2-carboxamide]
≤ 100 | CN1CCN=C1c1ccc(-n2cc(CNC(=O)c3ccc(Cl)s3)nn2)cc1 [Example 312, 5-Chloro-N-((1-(4-(1-methyl-4,5-dihydro-1H-imidazol-2-yl)phenyl)-1H-1,2,3-triazol-4-yl)methyl)thiophene-2-carboxamide]

IC50 [nM] | SMILES
≤ 100 | CC1(CNC(=O)c2ccc(Cl)s2)CC(c2ccc(C(=N)N3CCCC3)cc2)=NO1 (centres unmarked) [Example 59, 5-Chloro-thiophene-2-carboxylic acid {3-[4-(imino-pyrrolidin-1-yl-methyl)-phenyl]-5-methyl-4,5-dihydro-isoxazol-5-ylmethyl}-amide]
≤ 100 | CC(C)Oc1cc(C(=N)N2CCCC2)ccc1-c1cc(CNC(=O)c2ccc(Cl)s2)on1 [Example 128, 5-Chloro-thiophene-2-carboxylic acid {3-[4-(imino-pyrrolidin-1-yl-methyl)-2-isopropoxy-phenyl]-isoxazol-5-ylmethyl}-amide]
≤ 100 | N=C(c1ccc(C2=NOC(CNC(=O)c3ccc(Cl)s3)C2)c(OC2CCCC2)c1)N1CCCC1 (centres unmarked) [Example 114, 5-Chloro-thiophene-2-carboxylic acid {3-[2-cyclopentyloxy-4-(imino-pyrrolidin-1-yl-methyl)-phenyl]-4,5-dihydro-isoxazol-5-ylmethyl}-amide]
≤ 100 | CN(C)C(=N)c1ccc(C2=NOC(CNC(=O)c3ccc(Cl)s3)C2)c(N2CCOCC2)c1 (centres unmarked) [Example 82, 5-Chloro-thiophene-2-carboxylic acid {3-[4-(N,N-dimethyl-carbamimidoyl)-2-morpholin-4-yl-phenyl]-4,5-dihydro-isoxazol-5-ylmethyl}-amide]
≥ 500 | N=C(c1ccccn1)N1CCC(C2=NOC(CNC(=O)c3ccc(Cl)s3)C2)CC1 (centres unmarked) [Example 175, 5-Chloro-thiophene-2-carboxylic acid {3-[1-(imino-pyridin-2-yl-methyl)-piperidin-4-yl]-4,5-dihydro-isoxazol-5-ylmethyl}-amide]
100 to 500 | O=C(NCC1CC(c2ccc(N3CCSCC3=O)cc2)=NO1)c1ccc(Cl)s1 (centres unmarked) [Example 244, 5-Chloro-thiophene-2-carboxylic acid {3-[4-(3-oxo-thiomorpholin-4-yl)-phenyl]-4,5-dihydro-isoxazol-5-ylmethyl}-amide]
≤ 100 | CCOC(=O)C1CCN(C(=N)c2ccc(-c3cc(CNC(=O)c4ccc(Cl)s4)on3)cc2)CC1 [Example 25, 1-{[4-(5-{[(5-Chloro-thiophene-2-carbonyl)-amino]-methyl}-isoxazol-3-yl)-phenyl]-imino-methyl}-piperidine-4-carboxylic acid ethyl ester]
≥ 500 | C#CCN(C)C(=N)c1ccc(-c2cc(CN(C)C(=O)c3ccc(Cl)s3)on2)cc1 [Example 47, 5-Chloro-thiophene-2-carboxylic acid methyl-{3-[4-(N-methyl-N-prop-2-ynyl-carbamimidoyl)-phenyl]-isoxazol-5-ylmethyl}-amide]
≤ 100 | N=C(c1ccc(-n2cc(CNC(=O)c3ccc(Cl)s3)cn2)cc1)N1CCC1 [Example 327, N-((1-(4-(Azetidin-1-yl(imino)methyl)phenyl)-1H-pyrazol-4-yl)methyl)-5-chlorothiophene-2-carboxamide]
≥ 500 | O=Cc1ccccc1-c1ccc(C2=NOC(CNC(=O)c3ccc(Cl)s3)C2)cc1 (centres unmarked) [Example 183, 5-Chloro-thiophene-2-carboxylic acid [3-(2′-formyl-biphenyl-4-yl)-4,5-dihydro-isoxazol-5-ylmethyl]-amide]
≥ 500 | COC(=O)c1ccccc1Nc1ccc(C2=NOC(CNC(=O)c3ccc(Cl)s3)C2)cc1 (centres unmarked) [Example 260, 2-[4-(5-{[(5-Chloro-thiophene-2-carbonyl)-amino]-methyl}-4,5-dihydro-isoxazol-3-yl)-phenylamino]-benzoic acid methyl ester]
≥ 500 | O=C(NCc1cc(-c2ccc(NCc3ccccc3)cc2)no1)c1ccc(Cl)s1 [Example 258, 5-Chloro-thiophene-2-carboxylic acid [3-(4-benzylamino-phenyl)-isoxazol-5-ylmethyl]-amide]
≤ 100 | CN1CCN(c2ccc(C3=NOC(CNC(=O)c4ccc(Cl)s4)C3)cc2)C1=O (centres unmarked) [Example 245, 5-Chloro-thiophene-2-carboxylic acid {3-[4-(3-methyl-2-oxo-imidazolidin-1-yl)-phenyl]-4,5-dihydro-isoxazol-5-ylmethyl}-amide]
≤ 100 | CC(C)Oc1cc(C2=NCCN2C)ccc1-c1cc(CNC(=O)c2ccc(Cl)s2)on1 [Example 127, 5-Chloro-thiophene-2-carboxylic acid {3-[2-isopropoxy-4-(1-methyl-4,5-dihydro-1H-imidazol-2-yl)-phenyl]-isoxazol-5-ylmethyl}-amide]
≤ 100 | COc1ccc(CN2CCCC2)c(-c2ccc(-c3cc(CNC(=O)c4ccc(Cl)s4)on3)cc2)c1 [Example 216, 5-Chloro-thiophene-2-carboxylic acid [3-(5′-methoxy-2′-pyrrolidin-1-ylmethyl-biphenyl-4-yl)-isoxazol-5-ylmethyl]-amide]
≤ 100 | O=C(NCc1cn(-c2ccc(N3CCCCC3=O)cc2)nn1)c1ccc(Cl)s1 [Example 300, 5-Chloro-N-((1-(4-(2-oxopiperidin-1-yl)phenyl)-1H-1,2,3-triazol-4-yl)methyl)thiophene-2-carboxamide]
